In data set [1] the target is T1, human CYP51A1 (Homo sapiens, UniProt Q16850).
T1 construct: made in house
T1 sequence (Q16850 1-509): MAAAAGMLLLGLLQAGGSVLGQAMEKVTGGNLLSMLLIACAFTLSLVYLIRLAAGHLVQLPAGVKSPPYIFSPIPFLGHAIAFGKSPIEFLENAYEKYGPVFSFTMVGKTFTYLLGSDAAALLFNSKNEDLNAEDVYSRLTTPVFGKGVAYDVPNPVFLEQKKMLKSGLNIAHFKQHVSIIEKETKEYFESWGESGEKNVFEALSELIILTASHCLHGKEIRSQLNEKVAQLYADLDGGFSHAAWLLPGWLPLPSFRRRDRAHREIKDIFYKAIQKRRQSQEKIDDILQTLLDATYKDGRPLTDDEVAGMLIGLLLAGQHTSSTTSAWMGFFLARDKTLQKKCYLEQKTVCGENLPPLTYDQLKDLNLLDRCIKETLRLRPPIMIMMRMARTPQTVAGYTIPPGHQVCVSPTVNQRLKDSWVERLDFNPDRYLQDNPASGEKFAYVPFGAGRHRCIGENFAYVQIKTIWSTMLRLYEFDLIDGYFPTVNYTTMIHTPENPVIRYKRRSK
The note with it: cited from earlier work; for affinity: direct coordination with heme iron; for Kd: read-out: Kdapp.

The target of data set [2] is T1, human CYP51A1. Description: Surface plasmon resonance binding to immobilized CYP51A1. The note with it: SPR; for Kd: immobilized CYP51A1, read-out: Kd (equilibrium dissociation constant).
Data set [3] has as its target T1, human CYP51A1. Description: Spectrophotometric titration (difference spectra) of CYP51A1 in the presence of lanosterol. Type of data set: binding. The note with it: for Kd: spectral titration, CYP51A1 4 μM, lanosterol 5 μM, pH 7.4, room temperature, read-out: apparent dissociation constant (Kdapp); for spectral response in the difference spectrum of CYP51A1: titration in the presence of lanosterol, baicalein and luteolin 7,3′-disulfate up to 30 μM, luteolin up to 15 μM. The procedure:
Spectrophotometric titration was used to determine the apparent dissociation constants (Kdapp) for the enzyme–ligand complexes. The spectral measurements were performed on Cary Series UV-Vis-NIR (Agilent Technologies, Santa Clara, CA, USA) spectrophotometer using tandem quartz cuvettes (1 cm optical path) to exclude the absorption of ligands. Natural substrate, lanosterol, at final concentration 5 μM was added before the titration to the CYP51A1 (final concentration 4 μM) in 50 mM potassium phosphate buffer, pH 7.4. […] The difference spectra were recorded after each addition of ligand at room temperature in the range of 350–500 nm. The apparent dissociation constants were determined by plotting the absorbance changes in the difference spectra versus the concentration of free ligand and evaluated by using the Hill equation (OriginPro 8.1 statistical data analysis package): Aobs=Amax×(S×n/Kdapp×n+S×n), where Aobs—the observed change in the absorption, Amax—the absorbance change at ligand saturation, Kdapp—the apparent dissociation constant for the ligand–enzyme complex, S—the ligand concentration, n—a Hill coefficient.

Data set [4] has as its system CYP1A, CYP2B and CYP3A4. The note with it: range over CYP1A; cited from earlier work.
Data set [5] concerns CYP2C19. The note with it: cited from earlier work.
Data set [6] has as its system CYP2C9. On the set-up: method as in PMID 32661014. The note with it: comparable to positive control sulfaphenazole; cited from earlier work.
In data set [7] the test system is CYP3A4. The note with it: cited from earlier work.
The target of data set [8] is T2, human CYP51A1 (lanosterol 14α-demethylase) (Homo sapiens, UniProt Q16850).
T2 construct: made in house
T2 sequence (Q16850 1-509): T1 sequence (Q16850 1-509)
Description: Lanosterol 14α-demethylase activity of CYP51A1 in the reconstituted system. Type of data set: biochemical. The note with it: for Relative Activity: CYP51A1 0.5 μM, CPR 2.0 μM, lanosterol 50 μM.

Data set [9] has as its system CYP1A2, CYP3A, CYP2B6, CYP2E1 and CYP2D6. On the set-up: method as in PMID 28872689, PMID 18191104. The note with it: range over CYP1A2, CYP3A; cited from earlier work.
Data set [10] relates to CYP2D6. Further details: method as in PMID 32942157. The note with it: 20 μM luteolin; cited from earlier work.
Where [11] appears, read: 25 °C, Langmuir 1:1 model, n = 3, read-out: koff (dissociation rate constant).
Where [12] appears, read: 25 °C, Langmuir 1:1 model, n = 3, read-out: kon (association rate constant).
The mark [13] stands for this setting: 25 °C, Two state reaction model, n = 3.
[14] abbreviates: concentration-dependent, up to 30 μM.

Structures are written as SMILES. Like-named read-outs stand apart in the source and are kept apart here.

For `CCCN(CCc1ccc(Cl)c(Cl)c1)CC(O)c1cccnc1` (stereo not drawn) [LK-935, 2-((3,4-Dichlorophenethyl)(Propyl)Amino)-1-(Pyridin-3-Yl)Ethanol], in data set [1], the affinity entry is “submicromolar range”.

`C[C@]12CC[C@H](O)CC1=CC[C@@H]1[C@@H]2CC[C@]2(C)C(c3cccnc3)=CC[C@@H]12` [abiraterone]: the Kd in data set [1] was 22 µM.

As usually defined, the IC50 is the point on the concentration scale where inhibition reaches its midpoint. For the molecule `O=c1cc(-c2ccccc2)oc2cc(O)c(O)c(O)c12` [baicalein], in [2] (25 °C), the Kd is 12.5 µM. Besides, in data set [3], the Kd stood at 8.2 ± 0.4 µM and the “spectral response in the difference spectrum of CYP51A1” value was “reverse type I spectral response”. Further, the IC50 in data set [4] was 0.5 to 36 µM.

`O=c1cc(-c2ccccc2)oc2cc(OS(=O)(=O)O)cc(O)c12` [chrysin 7-sulfate]: the inhibition effect result in [5] and in data set [7] was “slight inhibition effect” throughout. Also, the IC50 in [6] is 2.7 µM.

Turning to `Clc1ccc(COC(Cn2ccnc2)c2ccc(Cl)cc2Cl)cc1` (stereo not drawn) [econazole], the affinity result in data set [1] was “submicromolar range”.

`C[C@]12CC[C@H](O)CC1=CC[C@@H]1[C@@H]2CC[C@]2(C)C(n3cnc4ccccc43)=CC[C@@H]12` [galeterone]: the Kd in data set [1] is 16 µM.

For the molecule `CC(C)=CCC[C@@H](C)[C@H]1CC[C@@]2(C)C3=C(CC[C@]12C)[C@@]1(C)CC[C@H](O)C(C)(C)[C@@H]1CC3` [lanosterol], the koff in data set [2] (setting [11]) came out at 0.0001 s⁻¹. In addition, the kon in [2] (setting [12]) turned out to be 41.4 M⁻¹ s⁻¹. In addition, the Kd in [2] (25 °C) amounted to 2.4 µM.

As a reminder, the inhibition is the drop in the measured response relative to a control, in per cent. For the molecule `O=c1cc(-c2ccc(O)c(OS(=O)(=O)O)c2)oc2cc(OS(=O)(=O)O)cc(O)c12` [luteolin 7,3′-disulfate], the “Relative Activity” value in [8] (compound 25 μM) came out at 49.9%. In [8] (compound 25 μM, read-out: level of inhibition), the inhibition at 25 µM stood at 50.1%. For the same molecule, the IC50 in data set [8] (reconstituted system, 5, 10, 25, 50 and 100 μM tested, read-out: apparent IC50) was more than 25 µM. The koff in [2] (setting [11]) came to 0.00084 s⁻¹. The kon in [2] (setting [12]) was 294 M⁻¹ s⁻¹. Moreover, the Kd in data set [2] (25 °C) was 2.9 µM. In addition, the “association rate of the CYP51A1 complex compared to lanosterol” value in data set [2] (relative to complex formation with lanosterol) is recorded as “seven times faster”. Moreover, in data set [2] (relative to complex with lanosterol), the “dissociation rate of the CYP51A1 complex compared to lanosterol” value is recorded as “about eight times higher”. Further, the “spectral response in the difference spectrum of CYP51A1” value in data set [3] was “does not cause changes in the difference spectrum”.

For `O=c1cc(-c2ccc(O)c(O)c2)oc2cc(O)cc(O)c12` [luteolin], the “Relative Activity” value in data set [8] (compound 25 μM) is 92.6%. Further, in [2] (setting [13]), the “koff2 (backward rate constant for CP ↔ CP* transition)” value is “koff2 (1/s × 10^−4) = 14 ± 2” and the “kon2 (forward rate constant for CP ↔ CP* transition)” value is “kon2 (1/s × 10^−4) = 33 ± 4”. For the same molecule, the koff in data set [2] (25 °C, Two state reaction model, n = 3, read-out: koff1 (dissociation rate constant)) amounted to 0.019 s⁻¹. Further, the kon in [2] (25 °C, Two state reaction model, n = 3, read-out: kon1 (association rate constant)) was found to be 282 M⁻¹ s⁻¹. Also, the Kd in [2] (25 °C) came to 20 µM. Moreover, in data set [3], the Kd was found to be 5.1 ± 0.5 µM and the “spectral response in the difference spectrum of CYP51A1” value is listed as “reverse type I spectral response”. In data set [9], the IC50 was 1.6 to 133 µM. Further, in [10], the “O-demethylation of 3-[2-(N,N-diethyl-N-methyl-ammonium)ethyl]-7-methoxy-4-methylcoumarin inhibited to” value is given as 40% and the “inhibition in reaction with dextromethorphan” value is less than 5%.

Consider `O=c1c(O)c(-c2ccc(O)c(OS(=O)(=O)O)c2)oc2cc(O)cc(O)c12` [quercetin 3′-sulfate], for which the inhibition effect in data set [5] (setting [14]) and in [7] (setting [14]) was not above 50% each time.

The values above are taken from publication PMC8070018, “Human Lanosterol 14-Alpha Demethylase (CYP51A1) Is a Putative Target for Natural Flavonoid Luteolin 7,3′-Disulfate” (Molecules, 2021).
